Series [1] relates to LNCaP cells. Nature of the series: Cell growth inhibition (MTT colorimetric assay), LNCaP. It counts as cell-based, human. The note with it: for GI50: LNCaP (mutant AR), MTT, means of three experiments, called IC50, read-out: Cytotoxicity GI50 (nM) LNCaP. The source says: (§1) Lead optimization of BTB01434 and further biological studies: BTB01434 (Maybridge) was used as a lead molecule to synthesize new molecules. Although this compound was not as potent as some of the others (cf. Table 4), it was chosen for its ease of modification. New compounds (6-23) were developed using the diaryl sulfonamide compound BTB01434 (FIG. 6) as a scaffold. […] Including new BTB01434 analogs, including diaryl sulfonamide analogs bearing various substituents on the phenyl rings (series A), aryl amide analogs (series B), and amine analogs (series C). These new compounds were evaluated for cell growth inhibition in two human prostate cancer cell lines, (LNCaP and PC-3) by MTT assay. Based on the structures and anti-prostate cancer activities of the new compounds, a structure-activity relationship (SAR) was formulated.
Androgen-dependent LNCaP cells were obtained from American Type Culture Collection (Rockville, Md., USA). Cells were maintained in RPMI 1640 medium supplemented with 10% fetal bovine serum (Atlanta Biologicals, Lawrenceville, Ga., USA) and 1% penicillin/streptomycin. Cells were grown as a monolayer in T75 or T150 tissue culture flasks in a humidified incubator (5% CO2, 95% air) at 37° C.
(§2) LNCaP cells were seeded in 24 well plates (Corning Costar) at a density of 2×10^4 cells per well per 1 mL of medium. Cell were allowed to adhere to the plate for 24 hours and then treated with different concentrations of ARDAs dissolved in DMSO. Cells were treated for five days with renewal of ARDA and media on day 3. On the fifth day, medium was renewed and 100 μL of MTT (3-(4,5-dimethylthiazol-2-yl)-2,5-diphenyl-2H-tetrazolium bromide from Sigma) solution (0.5 mg MTT/mL of medium) was added to the medium such that the ratio of MTT:medium was 1:10. The cells were incubated with MTT for 2 hours. The medium was then aspirated and 500 μL of DMSO was added to solubilize the violet MTT-formazan product. The absorbance at 560 nm was measured by spectrophotometry (Victor 1420 multilabel counted, Wallac). For each concentration of ARDA there were triplicate wells in each independent experiment. IC50 values were calculated by nonlinear regression analysis using GraphPad Prism software.

The test system of series [2] is PC-3 cells. Nature of the series: Cell growth inhibition (MTT assay), PC-3. The note with it: PC-3 (AR null), means of three experiments, called IC50, read-out: Cytotoxicity GI50 (nM) PC-3. It counts as cell-based, human.
Source text: as §1
Inhibition of prostate cancer cell proliferation and SAR: The exemplary compounds were then tested for their ability to inhibit cell viability in both the LNCaP (mutant AR) and PC-3 (AR null) cell lines (Table 5).
as §2
(Formazan colour is commonly taken as a measure of viable cells.)

Series [3] deals with androgen receptor (AR). Nature of the series: AR protein expression down-regulation in LNCaP cells (Western blot). In kind it is cell-based, human. The protocol: All five known ARDAs (FIG. 1) were evaluated for their ability to decrease AR protein expression in a dose dependent manner and dose response curves were generated to determine their EC50 values.
These compounds were further evaluated to determine their EC50 values (from dose response curves).
For immunoblot detection of the AR, LNCaP cells were cultured as described above in T25 flasks. Cells were treated with various concentrations of ARDAs and whole cell lysates were prepared using lysis buffer containing 0.1M Tris, 0.5% Triton X-100, and protease inhibitor. Protein content was determined using the Bradford Assay (Bio-Rad, Hercules, Calif., USA). Protein was subjected to SDS-PAGE (10% acrylamide) and transferred onto nitrocellulose membrane. The blots were blocked overnight in 5% nonfat milk in PBS-T buffer at 4° C. Monoclonal antibody was used against the AR (AR441; sc-7305; Santa Cruz Biotechnology, Santa Cruz, Calif.; 1:500 dilution) at room temperature for one hour. Membranes were then incubated with a goat anti-mouse IgG secondary antibody conjugated to horseradish peroxidase (Bio-Rad cat #170-6516; 1:2000 dilution) at room temperature for one hour. Blots were rinsed with PBS-T between each step and specific bands were visualized by enhanced chemiluminescence (ECL; Amersham Biosciences, Arlington Heights, Ill., USA). Equivalent loading of samples was determined by reprobing membranes with β-actin (Calbiochem, USA). Protein expression was normalized to β-actin.
In general terms: Immunoblotting shows a protein as a band on a membrane.

In series [4] the target is T1, wild-type AR (Homo sapiens, UniProt P10275).
T1 construct: expressed in transfected cells; host or cells: PC-3 (stably transfected, PC-3-AR)
T1 sequence (P10275 1-920): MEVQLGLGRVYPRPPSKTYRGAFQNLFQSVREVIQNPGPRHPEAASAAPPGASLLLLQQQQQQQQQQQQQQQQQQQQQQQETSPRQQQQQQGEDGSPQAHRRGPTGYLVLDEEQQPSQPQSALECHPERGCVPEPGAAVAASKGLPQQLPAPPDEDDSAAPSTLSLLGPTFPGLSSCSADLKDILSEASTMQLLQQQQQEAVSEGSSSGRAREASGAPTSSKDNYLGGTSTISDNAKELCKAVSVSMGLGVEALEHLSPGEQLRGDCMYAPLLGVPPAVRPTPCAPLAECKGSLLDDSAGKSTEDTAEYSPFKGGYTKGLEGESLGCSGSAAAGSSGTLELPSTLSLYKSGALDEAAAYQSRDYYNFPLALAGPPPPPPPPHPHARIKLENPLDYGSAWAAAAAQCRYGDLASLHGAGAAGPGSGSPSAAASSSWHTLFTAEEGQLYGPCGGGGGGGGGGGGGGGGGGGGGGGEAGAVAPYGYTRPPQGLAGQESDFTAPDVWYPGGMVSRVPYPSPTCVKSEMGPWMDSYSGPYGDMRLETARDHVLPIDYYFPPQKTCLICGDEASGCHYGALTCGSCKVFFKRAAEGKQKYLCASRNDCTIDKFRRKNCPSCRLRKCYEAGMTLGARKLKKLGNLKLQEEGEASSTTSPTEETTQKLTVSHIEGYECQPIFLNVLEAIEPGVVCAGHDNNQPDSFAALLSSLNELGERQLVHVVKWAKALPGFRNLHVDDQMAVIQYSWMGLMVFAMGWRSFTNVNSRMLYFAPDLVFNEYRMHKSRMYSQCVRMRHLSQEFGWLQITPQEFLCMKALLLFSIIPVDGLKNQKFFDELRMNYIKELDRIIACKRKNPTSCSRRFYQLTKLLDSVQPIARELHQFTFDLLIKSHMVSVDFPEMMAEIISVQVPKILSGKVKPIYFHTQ
The experiment in a line: Competitive androgen receptor binding with [3H]-R1881 in PC-3-AR cells. The following applies: for reduction of [3H]-R1881 binding: PC-3-AR cells. The protocol:
In both cell lines, compounds 9 and 11 were able to effectively compete with labeled R1881 in a dose-dependent fashion (FIG. 11). In PC-3-AR cells compound II reduced [^3H]-R1881 binding by 65% and 80% at 10 μM and 20 μM, respectively. […] Compound 9 reduced [^3H]-R1881 binding by 50% and 65% at 10 μM and 20 μM, respectively, and was equipotent in both cell lines.
(§3) These assays were performed as previously described.^10

Series [5] relates to AR-mediated transcription (LNCaP-AR). The experiment in a line: Luciferase transactivation assay in LNCaP cells transfected with ARR2-Luc. The following applies: for effect on luciferase activity, compound alone: without DHT. In kind it is cell-based, human. The protocol: FIG. 12. […] Cells in steroid-free medium were treated with vehicle, or increasing concentrations of either 9 or 11 with and without 5 nM DHT for 18 h. Cells were then assayed for luciferase activity using a know assay.^10
To determine if the compounds act as AR agonists or antagonists, androgen regulated transcriptional activation studies were performed in LNCaP cells transiently transfected with the probasin luciferase reported construct ARR2-Luc.
as §3

Setting [6] is: decrease of AR protein expression, LNCaP cells, training set ARDAs (Table 1), read-out: EC50 values.
Setting [7] is: AR down-regulation, LNCaP cells (Table 5), read-out: ARDA EC50.

SMILES strings stand for the structures. Like-named read-outs stand apart in the source and are kept apart here. Bounds are passed on as bounds.

As to `Cc1ccc(S(=O)(=O)Nc2ccccc2)cc1` [Compound 16, [(4-Methylphenyl)sulfonyl]phenylamine], the concentration for 50% growth inhibition (GI50) (usually the concentration giving 50% growth inhibition) in series [1] (Homo sapiens, LNCaP) turned out to be 24000 nM; in series [2] (Homo sapiens) it was 38900 nM.

For `Cc1ccc(NS(=O)(=O)c2ccc(F)cc2)c(C(=O)O)c1` [Compound 12, {[(4-fluorophenyl)sulfonyl]amino}-5-methylbenzoicacid], the GI50 in series [1] was 10700 nM; in series [2] it was above 100000 nM.

For the compound `O=S(=O)(Nc1ccccc1)c1ccccc1` [Compound 17, Phenyl(phenylsulfonyl)amine], the GI50 in series [1] (Homo sapiens, LNCaP) was 53500 nM; in series [2] (Homo sapiens) it was above 100000 nM.

As to `Cc1ccc(CNc2ccc(C)cc2)cc1` [Compound 21, (4-Methylphenyl) [(4-methylphenyl)methyl]amine], the GI50 in series [1] (Homo sapiens, LNCaP) came out at 19000 nM; in series [2] (Homo sapiens), 29500 nM.

Regarding `COc1cc(/C=C/C(=O)CC(=O)/C=C/c2ccc(O)c(OC)c2)ccc1O` [Curcumin (4), curcumin], the EC50 (usually the concentration at which the effect is half-maximal) in series [3] (setting [6]) came to 35 µM.

Turning to `Cc1ccc(-c2nnn[nH]2)c(NS(=O)(=O)c2ccc(F)cc2)c1` [Compound 14, (2-(1H-1,2,3,4-tetrazole-5-yl)-5-methylphenyl)[(4-fluorophenyl)sulfonyl]amine], the GI50 in series [1] (Homo sapiens, LNCaP) is above 100000 nM; in series [2] (Homo sapiens), above 100000 nM.

Regarding `Cc1ccc(NCc2ccccc2)cc1` [Compound 23, (4-Methylphenyl)benzylamine], the GI50 in series [1] (Homo sapiens, LNCaP) was above 100000 nM; in series [2] (Homo sapiens) it was 52400 nM.

Turning to `Cc1ccc(NC(=O)c2ccc(C)cc2)cc1` [Compound 19, (4-Methylphenyl)-N-(4-methylphenyl)carboxamide], the GI50 in series [1] (Homo sapiens, LNCaP) turned out to be 55000 nM; in series [2] (Homo sapiens) it was 26900 nM.

Regarding `Cc1ccc(S(=O)(=O)Nc2ccc(C)cc2[N+](=O)[O-])cc1` [BTB01434, reference compound], the EC50 in series [3] (setting [7]) came to 76 µM; in series [3] (LNCaP cells, database hits (Table 4), read-out: EC50 (μM), ability to down-regulate AR protein expression), 76 µM. The GI50 in series [1] (Homo sapiens, LNCaP) stood at 39800 nM; in series [2] (Homo sapiens), 43700 nM. Also, the IC50 – broadly, the concentration at which inhibition is half-maximal – in series [1] (Homo sapiens, LNCaP cells (Table 4), read-out: IC50 (μM), effect on LNCaP cell viability) came to 39.8 µM.

Turning to `Cc1ccc(NS(=O)(=O)c2ccccc2)c(C(=O)O)c1` [Compound 10, 5-Methyl-2-[(phenylsulfonyl)amino]benzoic acid], the GI50 in series [1] (Homo sapiens, LNCaP) amounted to 18.2 nM.

In the case of `Cc1ccc(NS(=O)(=O)c2ccccc2)cc1` [Compound 15, (4-methylphenyl)(phenylsulfonyl)amine], the GI50 in series [1] (Homo sapiens, LNCaP) worked out at 21300 nM; in series [2] (Homo sapiens) it was 13800 nM.

With `Cc1ccc(N(C)S(=O)(=O)c2ccc(C)cc2)cc1` [Compound 18, Methyl(4-methylphenyl)[(4-methylphenyl)sulfonyl]amine], the 50% growth inhibitory concentration (GI50) in series [1] (Homo sapiens, LNCaP) is 89200 nM; in series [2] (Homo sapiens) it was 44700 nM.

In the case of `Cc1ccc(NS(=O)(=O)c2ccc(C)cc2)cc1` [Compound 11, (4-Methylphenyl)[(4-methylphenyl)sulfonyl]amine], the 50% growth inhibitory concentration (GI50) in series [1] (Homo sapiens, LNCaP) was 1.45 nM; in series [2] (Homo sapiens), 30200 nM. Also, the “greater inhibition of [3H]-R1881 binding to wild-type AR than to mutated receptor” value in series [4] (10 μM and above) is listed as “approximately 20%”. Also, the “reduction of [3H]-R1881 binding” value in series [4] (10 μM) turned out to be 65%; in series [4] (20 μM), 80%. Further, the “effect on luciferase activity, compound alone” value in series [5] (0.1 μM) and in series [5] (10 μM) was “no effect” throughout. Further, in series [5] (10 μM, with 5 nM DHT), the “reduction of luciferase expression in the presence of DHT” value came to 80%.

Take `Cc1ccc(S(=O)(=O)Nc2ccccc2[N+](=O)[O-])cc1` [Compound 6, [(4-Methylphenyl)sulfonyl](2-nitrophenyl)amine]: the EC50 in series [3] (setting [7]) is above 150 µM. Further, the GI50 worked out at 83 nM in series [1] (Homo sapiens, LNCaP) and 50100 nM in series [2] (Homo sapiens).

In the case of `C[C@]12CCC(=O)C[C@@H]1CC[C@@H]1[C@@H]2CC[C@]2(C)[C@@H](O)CC[C@@H]12` [DHT, dihydrotestosterone, reference compound], the “stimulation of luciferase activity” value in series [5] (5 nM) is recorded as “approximately 200 fold”.

For the compound `Cc1ccc(NS(=O)(=O)c2ccccc2)c([N+](=O)[O-])c1` [Compound 8, (4-Methyl-2-nitrophenyl)(phenylsulfonyl)amine], the GI50 in series [1] (Homo sapiens, LNCaP) was 2.95 nM; in series [2] (Homo sapiens), 60200 nM.

Regarding `Cc1ccc(C#N)c(NS(=O)(=O)c2ccc(F)cc2)c1` [Compound 13, 2-{[(4-fluorophenyl)sulfonyl]amino}-4-methylbenzenecarbonitrile], the GI50 in series [1] (Homo sapiens, LNCaP) is 30200 nM; in series [2] (Homo sapiens), around 100000 nM.

`O=C(O)c1ccccc1Nc1cccc(C(F)(F)F)c1` [Flufenamic acid (3), flufenamic acid]: the EC50 in series [3] (setting [6]) was around 200 µM.

(Values after patent US7960435B2, “Anti-cancer agents and androgen inhibition activity compound” (University of Maryland, Baltimore, priority 2006, dated 2011).)
